The compounds below were run against Human PPAR-gamma (Homo sapiens (Human), UniProt P37231) (assay: Human PPAR-gamma (h) (agonist radioligand) binding assay). Conditions: inhibition of radioligand specific binding; class ranges defined in μM.
Protocol: The compounds of the present invention were assayed for binding to the Human PPAR-gamma (h) (agonist radioligand) Assay and were tested at several concentrations for IC50 determination.
Compound binding was calculated as a % inhibition of the binding of a radioactively labelled ligand specific for each target, as described in (FERRY, Gilles, et al. Binding of prostaglandins to human PPARγ: tool assessment and new natural ligands. European journal of pharmacology, 2001, vol. 417, no 1, p. 77-89).
The IC50 values (concentration causing a half-maximal inhibition of control specific binding) was determined by non-linear regression analysis of the competition curves generated with mean replicate values using Hill equation curve fitting
where Y=specific binding, A=left asymptote of the curve, D=right asymptote of the curve, C=compound concentration, C50=IC50, and nH=slope factor. This analysis was performed using software developed at EUROFINS Cerep Company (Hill software) and validated by comparison with data generated by the commercial software SigmaPlot® 4.0 for Windows® (© 1997 by SPSS Inc.).

Human PPAR-gamma, sequence (P37231 whole entry): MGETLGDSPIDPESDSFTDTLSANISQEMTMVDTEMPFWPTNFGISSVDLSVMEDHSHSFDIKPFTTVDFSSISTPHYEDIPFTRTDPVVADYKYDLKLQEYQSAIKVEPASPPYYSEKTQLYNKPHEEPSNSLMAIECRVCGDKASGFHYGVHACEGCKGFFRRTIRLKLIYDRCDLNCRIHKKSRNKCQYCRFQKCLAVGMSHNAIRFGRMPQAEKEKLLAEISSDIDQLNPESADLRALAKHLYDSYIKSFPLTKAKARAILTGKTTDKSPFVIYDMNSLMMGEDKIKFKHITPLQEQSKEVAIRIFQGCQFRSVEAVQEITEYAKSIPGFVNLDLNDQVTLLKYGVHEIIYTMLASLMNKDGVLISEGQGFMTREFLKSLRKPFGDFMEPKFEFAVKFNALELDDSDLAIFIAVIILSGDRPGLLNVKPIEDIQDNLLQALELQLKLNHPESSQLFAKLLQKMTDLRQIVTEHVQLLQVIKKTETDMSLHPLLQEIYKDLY

| SMILES | IC50 [µM] |
| --- | --- |
| N#Cc1ccc(Cl)c(C(=O)Nc2ccnc(-c3ccc(F)cc3)c2)c1 [Example 3, 2-chloro-5-cyano-N-(2-(4-fluorophenyl)pyridin-4-yl)benzamide] | 0.2 to 1 |
| N#Cc1ccc(Cl)c(C(=O)Nc2ccnc(-c3cccnc3)c2)c1 [Example 6, N-([2,3′-bipyridin]-4-yl)-2-chloro-5-cyanobenzamide] | 1 to 50 |
| N#Cc1ccc(Cl)c(C(=O)Nc2ccc(-c3ccncc3)nc2)c1 [Example 7, N-([2,4′-bipyridin]-5-yl)-2-chloro-5-cyanobenzamide] | 1 to 50 |
| CN1CCN(c2ccc(NC(=O)c3cc(C#N)ccc3Cl)cn2)CC1 [Example 14, 2-chloro-5-cyano-N-(6-(4-methylpiperazin-1-yl)pyridin-3-yl)benzamide] | 1 to 50 |
| CN1CCN(c2cc(NC(=O)c3cc(C#N)ccc3Cl)ccn2)CC1 [Example 15, 2-chloro-5-cyano-N-(2-(4-methylpiperazin-1-yl)pyridin-4-yl)benzamide] | ≥ 50 |
| N#Cc1ccc(Cl)c(C(=O)Nc2ccnc(N3CCOCC3)c2)c1 [Example 16, 2-chloro-5-cyano-N-(2-morpholinopyridin-4-yl)benzamide] | 1 to 50 |
| N#Cc1ccc(Cl)c(C(=O)Nc2ccc(N3CCOCC3)nc2)c1 [Example 17, 2-chloro-5-cyano-N-(6-morpholinopyridin-3-yl)benzamide] | 1 to 50 |

More lines, now with the values ahead:

| IC50 [µM] | SMILES |
| --- | --- |
| < 0.2 | N#Cc1ccc(Cl)c(C(=O)Nc2ccnc(-c3ccccc3)c2)c1 [Example 1, 2-chloro-5-cyano-N-(2-phenylpyridin-4-yl)benzamide] |
| < 0.2 | N#Cc1ccc(Cl)c(C(=O)Nc2ccc(-c3ccccc3)nc2)c1 [Example 2, 2-chloro-5-cyano-N-(6-phenylpyridin-3-yl)benzamide] |
| < 0.2 | N#Cc1ccc(Cl)c(C(=O)Nc2ccc(-c3ccc(F)cc3)nc2)c1 [Example 4, 2-chloro-5-cyano-N-(6-(4-fluorophenyl)pyridin-3-yl)benzamide] |
| < 0.2 | N#Cc1ccc(Cl)c(C(=O)Nc2ccc(-c3cccnc3)nc2)c1 [Example 5, N-([2,3′-bipyridin]-5-yl)-2-chloro-5-cyanobenzamide] |
| < 0.2 | N#Cc1ccc(F)c(C(=O)Nc2ccc(-c3cccnc3)nc2)c1 [Example 9, N-([2,3′-bipyridin]-5-yl)-5-cyano-2-fluorobenzamide] |
| < 0.2 | N#Cc1ccc(F)c(C(=O)Nc2ccc(-c3ccc(F)cc3)nc2)c1 [Example 10, 5-cyano-2-fluoro-N-(6-(4-fluorophenyl)pyridin-3-yl)benzamide] |
| < 0.2 | N#Cc1ccc(Cl)c(C(=O)Nc2ccc(-c3ccccn3)nc2)c1 [Example 13, N-([2,2′-bipyridin]-5-yl)-2-chloro-5-cyanobenzamide] |
